For the assay, the target named is T1, BRM (Homo sapiens, UniProt P51531).
T1 construct: In-Cell Western Screen of BRM Degradation in SW1573 Cells; endogenous in cells; host or cells: SW1573 cells
Briefly: Western blot / In-Cell Western screen of BRM degradation in SW1573 cells. It is filed as cell-based. The settings on record: overnight (18-20 hours) treatment; for Dmax: read-out: Dmax (%) (% degraded). Put shortly: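 SW1573 cells treated overnight (18-20 hours) with compound at 0.1% final DMSO. BRM measured either by Western blot of RIPA lysates with alpha-tubulin control and chemiluminescent detection, or by In-Cell Western on fixed, permeabilized cells with LI-COR dual-channel read against alpha-tubulin; Dmax and DC50 derived.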
A general note: A western blot detects proteins with antibodies after separation by electrophoresis.

Structures are written as SMILES. Structures can show the parent of a compound that is named as a salt.

For 14 compounds, DC50 and Dmax results are on record in patent publication US20250064945A1 (Arvinas Operations, Inc., priority 2021, published 2025).

T1 sequence (P51531 whole entry): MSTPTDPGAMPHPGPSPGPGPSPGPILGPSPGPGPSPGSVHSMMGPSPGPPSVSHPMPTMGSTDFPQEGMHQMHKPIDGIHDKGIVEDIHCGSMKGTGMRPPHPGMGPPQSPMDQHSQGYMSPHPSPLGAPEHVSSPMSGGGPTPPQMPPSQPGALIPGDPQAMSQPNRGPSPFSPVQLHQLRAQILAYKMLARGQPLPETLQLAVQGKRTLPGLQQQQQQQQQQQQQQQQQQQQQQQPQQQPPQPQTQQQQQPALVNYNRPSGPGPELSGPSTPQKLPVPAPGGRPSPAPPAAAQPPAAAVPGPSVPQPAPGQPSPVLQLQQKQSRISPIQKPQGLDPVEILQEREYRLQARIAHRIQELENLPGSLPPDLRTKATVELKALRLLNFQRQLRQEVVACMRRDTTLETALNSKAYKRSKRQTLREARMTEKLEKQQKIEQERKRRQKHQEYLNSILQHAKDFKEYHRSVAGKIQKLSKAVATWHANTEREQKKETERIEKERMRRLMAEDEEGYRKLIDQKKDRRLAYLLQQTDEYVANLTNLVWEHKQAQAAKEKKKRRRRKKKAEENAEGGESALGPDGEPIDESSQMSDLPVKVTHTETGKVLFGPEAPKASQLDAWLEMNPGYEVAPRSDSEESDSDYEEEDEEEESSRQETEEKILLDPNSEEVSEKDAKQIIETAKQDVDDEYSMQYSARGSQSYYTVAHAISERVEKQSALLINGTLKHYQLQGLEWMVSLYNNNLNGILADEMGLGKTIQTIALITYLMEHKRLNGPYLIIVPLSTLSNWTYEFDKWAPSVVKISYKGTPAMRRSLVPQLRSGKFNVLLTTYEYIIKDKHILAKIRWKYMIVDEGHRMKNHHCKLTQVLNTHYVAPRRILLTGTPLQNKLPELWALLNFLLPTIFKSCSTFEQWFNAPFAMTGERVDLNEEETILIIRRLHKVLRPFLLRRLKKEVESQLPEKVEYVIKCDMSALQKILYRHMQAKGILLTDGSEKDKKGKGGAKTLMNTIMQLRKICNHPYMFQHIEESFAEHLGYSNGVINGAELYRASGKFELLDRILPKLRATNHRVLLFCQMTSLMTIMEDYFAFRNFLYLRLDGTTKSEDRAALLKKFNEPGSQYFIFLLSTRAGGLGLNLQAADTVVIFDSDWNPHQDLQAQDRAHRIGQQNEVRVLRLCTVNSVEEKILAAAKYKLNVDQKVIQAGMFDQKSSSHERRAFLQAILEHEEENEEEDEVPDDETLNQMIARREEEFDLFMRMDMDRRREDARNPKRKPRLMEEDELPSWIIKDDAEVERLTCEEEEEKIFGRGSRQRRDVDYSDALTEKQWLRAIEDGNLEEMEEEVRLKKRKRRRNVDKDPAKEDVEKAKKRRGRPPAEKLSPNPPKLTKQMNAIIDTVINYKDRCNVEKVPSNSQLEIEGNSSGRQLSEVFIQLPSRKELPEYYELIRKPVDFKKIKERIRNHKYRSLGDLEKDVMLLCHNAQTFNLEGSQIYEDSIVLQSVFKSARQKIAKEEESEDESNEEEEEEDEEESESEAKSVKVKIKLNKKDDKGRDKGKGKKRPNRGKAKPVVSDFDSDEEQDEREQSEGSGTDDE

As to `Cc1ncsc1-c1ccc([C@H](C)NC(=O)[C@@H]2C[C@@H](O)CN2C(=O)[C@@H](c2cc(N3CCC(CN4CCC(O[C@H]5C[C@@H](N6CCC(CC#Cc7cn8cc(-c9ccccc9O)nc8nc7N)CC6)C5)CC4)CC3)no2)C(C)C)cc1` [Compound 36, formate], the DC50 (commonly the midpoint of the concentration-degradation curve) is below 2.5 nM and the Dmax (usually the greatest extent of degradation seen) is above 75%.

Consider `Cc1ncsc1-c1ccc([C@H](C)NC(=O)[C@@H]2C[C@@H](O)CN2C(=O)[C@@H](c2cc(OCCN3CCN(CCOc4cc(N5CCN(c6cc(-c7ccccc7O)nnc6N)CC56COC6)ccn4)CC3)no2)C(C)C)cn1` [Compound 17, (2S,4R)-1-[(2R)-2-{3-[2-(4-{2-[(4-{8-[3-amino-6-(2-hydroxyphenyl)pyridazin-4-yl]-2-oxa-5,8-diazaspiro[3.5]nonan-5-yl}pyridin-2-yl)oxy]ethyl}piperazin-1-yl)ethoxy]-1,2-oxazol-5-yl}-3-methylbutanoyl]-4-hydroxy-N-[(1S)-1-[6-(4-methyl-1,3-thiazol-5-yl)pyridin-3-yl]ethyl]pyrrolidine-2-carboxamide], for which the DC50 lay within 2.5 to 10 nM and the Dmax was above 75%. `CC(C)[C@@H](C(=O)N1C[C@H](O)C[C@H]1C(=O)N[C@@H](C)c1ccc(-c2ccnn2C)cc1)c1cc(N2CCC(CN3CCC(O[C@H]4C[C@H](C#Cc5cn6cc(-c7ccccc7O)nc6nc5N)C4)CC3)CC2)no1` [Compound 33]: the 50% degradation concentration (DC50) was below 2.5 nM and the greatest degradation seen (Dmax) is above 75%. In the case of `Cc1ncsc1-c1ccc([C@H](C)NC(=O)[C@@H]2C[C@@H](O)CN2C(=O)[C@H](c2cc(OCCCC#Cc3cn4cc(-c5ccccc5O)nc4nc3N)no2)C(C)C)cc1` [Compound 30, (2S,4R)-1-[(2S)-2-[3-({5-[7-amino-2-(2-hydroxyphenyl)imidazo[1,2-a]pyrimidin-6-yl]pent-4-yn-1-yl}oxy)-1,2-oxazol-5-yl]-3-methylbutanoyl]-4-hydroxy-N-[(1S)-1-[4-(4-methyl-1,3-thiazol-5-yl)phenyl]ethyl]pyrrolidine-2-carboxamide], the DC50 is at least 30 nM. Regarding `Cc1ncsc1-c1ccc([C@H](C)NC(=O)[C@@H]2C[C@@H](O)CN2C(=O)[C@@H](c2cc(N3CCC(CN4CCC(O[C@H]5C[C@H](Oc6cc(CCc7cc(-c8ccccc8O)nnc7N)ccn6)C5)CC4)CC3)no2)C(C)C)cc1` [Compound 1, (2S,4R)-4-hydroxy-N-[(1S)-1-[4-(4-methyl-1,3-thiazol-5-yl)phenyl]ethyl]-1-[(2R)-3-methyl-2-{3-[4-({4-[(1r,3r)-3-[(4-{2-[3-amino-6-(2-hydroxyphenyl)pyridazin-4-yl]ethyl}pyridin-2-yl)oxy]cyclobutoxy]piperidin-1-yl}methyl)piperidin-1-yl]-1,2-oxazol-5-yl}butanoyl]pyrrolidine-2-carboxamide], the 50% degradation concentration (DC50) lay in the range of 2.5 to 10 nM and the Dmax was above 75%.

Regarding `Cc1ncsc1-c1ccc([C@H](C)NC(=O)[C@@H]2C[C@@H](O)CN2C(=O)[C@@H](c2cc(N3CCC(CN4CCC(O[C@H]5C[C@H](Oc6cc(N7CCN(c8cc(-c9ccccc9O)nnc8N)CC78COC8)ccn6)C5)CC4)CC3)no2)C(C)C)cc1` [Compound 4, (2S,4R)-4-hydroxy-N-[(1S)-1-[4-(4-methyl-1,3-thiazol-5-yl)phenyl]ethyl]-1-[(2R)-3-methyl-2-{3-[4-({4-[(1r,3r)-3-[(4-{8-[3-amino-6-(2-hydroxyphenyl)pyridazin-4-yl]-2-oxa-5,8-diazaspiro[3.5]nonan-5-yl}pyridin-2-yl)oxy]cyclobutoxy]piperidin-1-yl}methyl)piperidin-1-yl]-1,2-oxazol-5-yl}butanoyl]pyrrolidine-2-carboxamide], the DC50 was below 2.5 nM and the Dmax is above 75%.

In the case of `CC(C)[C@@H](C(=O)N1C[C@H](O)C[C@H]1C(=O)N[C@@H](C)c1ccc(C#N)cc1)c1cc(OCCN2CCC(O[C@H]3C[C@@H](Oc4cc(N5CCN(c6cc(-c7ccccc7O)nnc6N)CC56COC6)ccn4)C3)CC2)no1` [Compound 24, (2S,4R)-N-[(1S)-1-(4-cyanophenyl)ethyl]-4-hydroxy-1-[(2R)-3-methyl-2-[3-(2-{4-[(1r,3r)-3-[(4-{8-[3-amino-6-(2-hydroxyphenyl)pyridazin-4-yl]-2-oxa-5,8-diazaspiro[3.5]nonan-5-yl}pyridin-2-yl)oxy]cyclobutoxy]piperidin-1-yl}ethoxy)-1,2-oxazol-5-yl]butanoyl]pyrrolidine-2-carboxamide], the DC50 is below 2.5 nM and the Dmax is above 75%. Turning to `Cc1ncsc1-c1ccc([C@H](C)NC(=O)[C@@H]2C[C@@H](O)CN2C(=O)[C@@H](c2cc(N3CCC(CN4CCC(O[C@H]5C[C@H](n6ccc(CN7C8CCC7CN(c7cc(-c9ccccc9O)nnc7N)C8)n6)C5)CC4)CC3)no2)C(C)C)cc1` [Compound 14, (2S,4R)-4-hydroxy-N-[(1S)-1-[4-(4-methyl-1,3-thiazol-5-yl)phenyl]ethyl]-1-[(2R)-3-methyl-2-{3-[4-({4-[(1r,3r)-3-[3-({3-[3-amino-6-(2-hydroxyphenyl)pyridazin-4-yl]-3,8-diazabicyclo[3.2.1]octan-8-yl}methyl)-1H-pyrazol-1-yl]cyclobutoxy]piperidin-1-yl}methyl)piperidin-1-yl]-1,2-oxazol-5-yl}butanoyl]pyrrolidine-2-carboxamide], the DC50 was at least 30 nM. In the case of `Cc1ncsc1-c1ccc([C@H](C)NC(=O)[C@@H]2C[C@@H](O)CN2C(=O)[C@@H](c2cc(N3CCC(CN4CCC(O[C@H]5C[C@H](C#Cc6cn7cc(-c8ccccc8O)nc7nc6N)C5)CC4)CC3)no2)C(C)C)cc1` [Compound 28, (2S,4R)-4-hydroxy-N-[(1S)-1-[4-(4-methyl-1,3-thiazol-5-yl)phenyl]ethyl]-1-[(2R)-3-methyl-2-{3-[4-({4-[(1r,3r)-3-(2-[7-amino-2-(2-hydroxyphenyl)imidazo[1,2-a]pyrimidin-6-yl]ethynyl}cyclobutoxy]piperidin-1-yl}methyl)piperidin-1-yl]-1,2-oxazol-5-yl}butanoyl]pyrrolidine-2-carboxamide], the DC50 was below 2.5 nM and the Dmax was above 75%.

Regarding `CC(C)[C@@H](C(=O)N1C[C@H](O)C[C@H]1C(=O)N[C@@H](C)c1ccc(-c2ccnn2C)cc1)c1cc(N2CCC(CN3CCC(O[C@H]4C[C@H](Cn5cc(-c6cn7cc(-c8ccccc8O)nc7nc6N)cn5)C4)CC3)CC2)no1` [Compound 42, (2S,4R)-4-hydroxy-N-[(1S)-1-[4-(1-methyl-1H-pyrazol-5-yl)phenyl]ethyl]-1-[(2R)-3-methyl-2-{3-[4-({4-[(1r,3r)-3-({4-[7-amino-2-(2-hydroxyphenyl)imidazo[1,2-a]pyrimidin-6-yl]-1H-pyrazol-1-yl}methyl)cyclobutoxy]piperidin-1-yl}methyl)piperidin-1-yl]-1,2-oxazol-5-yl}butanoyl]pyrrolidine-2-carboxamide], the 50% degradation concentration (DC50) is below 2.5 nM and the Dmax is above 75%. In the case of `Cc1ncsc1-c1ccc([C@H](C)NC(=O)[C@@H]2C[C@@H](O)CN2C(=O)[C@@H](c2cc(N3CCC(CN4CCC(OCCn5cnc(-c6cn7cc(-c8ccccc8O)nc7nc6N)c5)CC4)CC3)no2)C(C)C)cc1` [Compound 38, (2S,4R)-1-[(2R)-2-[3-(4-{[4-(2-{4-[7-amino-2-(2-hydroxyphenyl)imidazo[1,2-a]pyrimidin-6-yl]-1H-imidazol-1-yl}ethoxy)piperidin-1-yl]methyl}piperidin-1-yl)-1,2-oxazol-5-yl]-3-methylbutanoyl]-4-hydroxy-N-[(1S)-1-[4-(4-methyl-1,3-thiazol-5-yl)phenyl]ethyl]pyrrolidine-2-carboxamide], the DC50 is 2.5 to 10 nM and the Dmax is above 75%. Taken in the same sequence, the figures for `CC(C)[C@@H](C(=O)N1C[C@H](O)C[C@H]1C(=O)N[C@@H](C)c1ccc(-c2ccnn2C)cc1)c1cc(N2CCC(CN3CCC(O[C@H]4C[C@H](N5CCC(C/C=C/c6cn7cc(-c8ccccc8O)nc7nc6N)CC5)C4)CC3)CC2)no1` [Compound 44, (2S,4R)-4-hydroxy-N-[(1S)-1-[4-(1-methyl-1H-pyrazol-5-yl)phenyl]ethyl]-1-[(2R)-3-methyl-2-{3-[4-({4-[(1r,3r)-3-{4-[(2E)-3-[7-amino-2-(2-hydroxyphenyl)imidazo[1,2-a]pyrimidin-6-yl]prop-2-en-1-yl]piperidin-1-yl}cyclobutoxy]piperidin-1-yl}methyl)piperidin-1-yl]-1,2-oxazol-5-yl}butanoyl]pyrrolidine-2-carboxamide] were below 2.5 nM and above 75%.

As to `Cc1ncsc1-c1ccc([C@H](C)NC(=O)[C@@H]2C[C@@H](O)CN2C(=O)[C@@H](c2cc(N3CCC(CN4CCC(O[C@H]5C[C@H](N6CCC(CN7CC8(C7)CN(c7cc(-c9ccccc9O)nnc7N)CCO8)CC6)C5)CC4)CC3)no2)C(C)C)cc1` [Compound 11, (2S,4R)-4-hydroxy-N-[(1S)-1-[4-(4-methyl-1,3-thiazol-5-yl)phenyl]ethyl]-1-[(2R)-3-methyl-2-{3-[4-({4-[(1r,3r)-3-[4-({8-[3-amino-6-(2-hydroxyphenyl)pyridazin-4-yl]-5-oxa-2,8-diazaspiro[3.5]nonan-2-yl}methyl)piperidin-1-yl]cyclobutoxy]piperidin-1-yl}methyl)piperidin-1-yl]-1,2-oxazol-5-yl}butanoyl]pyrrolidine-2-carboxamide], the half-maximal degradation concentration (DC50) was 2.5 to 10 nM and the Dmax was above 75%. With `CC(C)[C@@H](C(=O)N1C[C@H](O)C[C@H]1C(=O)N[C@@H](C)c1ccc(-c2c(F)cnn2C)cc1)c1cc(N2CCC(CN3CCC(O[C@H]4C[C@H](C#Cc5cn6cc(-c7ccccc7O)nc6nc5N)C4)CC3)CC2)no1` [Compound 39, (2S,4R)-N-[(1S)-1-[4-(4-fluoro-1-methyl-1H-pyrazol-5-yl)phenyl]ethyl]-4-hydroxy-1-[(2R)-3-methyl-2-{3-[4-({4-[(1r,3r)-3-{2-[7-amino-2-(2-hydroxyphenyl)imidazo[1,2-a]pyrimidin-6-yl]ethynyl}cyclobutoxy]piperidin-1-yl}methyl)piperidin-1-yl]-1,2-oxazol-5-yl}butanoyl]pyrrolidine-2-carboxamide], the half-maximal degradation concentration (DC50) is below 2.5 nM and the Dmax is above 75%.
